Laboratory results reported in patent US10265311B2, “Methods and compositions for treatment of disorders ameliorated by muscarinic receptor activation” (PureTech Health LLC, priority 2009, dated 2019).

What was measured:
[1] = with the anticholinergic agent glycopyrrolate; escalating amounts of RS-86; Alzheimer's Disease; cited from earlier work
[2] = test system: normal healthy volunteers; assay: Phase I double-blind randomized multiple-dose study, xanomeline alone vs xanomeline with trospium chloride: adverse event incidence; format: in vivo, human
Source text: We conducted a Phase I, double-blind, randomized multiple-dose pilot study of xanomeline administered alone compared to xanomeline administered in combination with trospium chloride in normal healthy volunteers. […] The parameters of the study were as follows:
70 total study subjects were randomized, and of these, 68 study subjects received at least one assessment on day 3, which was the first day of xanomeline administration. The demographics of the study subjects were as follows:
The incidence and number of cholinergic adverse events in the evaluable population of the study was as follows, with all p-values based on a chi-squared test, with the exception of those marked with a * which werebased on a Fisher's exact test: […]

[3] = methscopolamine given with xanomeline; Medina et al. 1997; cited from earlier work
[4] = evaluable population, xanomeline 75 mg TID, trospium 20 mg BID or placebo, 7 days

CCN1C(=O)CC2(CCN(C)CC2)C1=O [RS-86]
improvement in cognition [1]: did not result in any improvement in cognition

CCCCCCOc1nsnc1C1=CCCN(C)C1 [Xanomeline + placebo, Xanomeline]
Salivation, % of subjects ([2]; evaluable population, 7 days): 36.4%
Sweating, % of subjects ([2]; evaluable population, 7 days): 48.5%
Any cholinergic TEAEs, # of events [2, 4]: 64
Any cholinergic TEAEs, % of subjects [2, 4]: 63.6%
Any cholinergic TEAEs, n subjects [2, 4]: 21
Any cholinergic TEAEs, % of subjects ([2]; evaluable population, xanomeline 75 mg TID, trospium 20 mg BID or placebo, 7 days, listed as xanomeline+placebo): 63%
Any SAE, # events ([2]; in vivo): 0
Any SAE, % ([2]; in vivo): 0.0%
Any study drug related TEAE, # events ([2]; in vivo): 92
Any study drug related TEAE, % ([2]; in vivo): 69.7%
Max Severity of TEAE Mild, % ([2]; in vivo): (66.7) N/A %
Max Severity of TEAE Moderate, % ([2]; in vivo): (15.2) N/A %
Max Severity of TEAE Severe, % ([2]; in vivo): (0.0) %
Max severity of study drug related TEAE Mild, % ([2]; in vivo): (57/6) N/A
Max severity of study drug related TEAE Moderate, % ([2]; in vivo): (12.1) N/A %
Max severity of study drug related TEAE Severe, % ([2]; in vivo): (0.0) N/A %

C[N+]1(C)[C@@H]2C[C@@H](OC(=O)[C@H](CO)c3ccccc3)C[C@H]1[C@@H]1O[C@@H]12 [methscopolamine]
effect on syncope, a side effect observed with xanomeline [3]: no effect on syncope
